Measured values from patent US20230220443A1, “CHARACTERIZATION OF S-ADENOSYL-L-METHIONINE-CONSUMING ENZYMES WITH 1-STEP EZ-MTASE: A UNIVERSAL COUPLED-ASSAY” (ALBERT EINSTEIN COLLEGE OF MEDICINE, priority 2017, published 2023).
“Also recorded” adds a separate entry of the source.

What was measured:
GsSDMT = molecular target: T1, GsSDMT (Galdieria sulphuraria, UniProt M2XPA0); details: lit. (54); cited from earlier work
T1 sequence (M2XPA0 2-297): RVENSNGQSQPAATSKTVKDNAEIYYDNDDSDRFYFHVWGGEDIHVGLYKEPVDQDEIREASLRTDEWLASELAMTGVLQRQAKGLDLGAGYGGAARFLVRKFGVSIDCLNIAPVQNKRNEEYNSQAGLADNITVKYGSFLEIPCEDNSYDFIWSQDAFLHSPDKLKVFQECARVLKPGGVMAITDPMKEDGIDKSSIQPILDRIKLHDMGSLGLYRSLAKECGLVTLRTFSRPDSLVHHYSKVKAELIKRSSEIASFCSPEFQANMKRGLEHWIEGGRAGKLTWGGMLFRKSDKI

deaminase TM0936 = molecular target: T2, deaminase TM0936 (Thermotoga maritima, UniProt Q9X034); assay: Deamination by coupling enzyme TM0936; format: biochemical
T2 construct: polyhistidine; made in house; host or cells: bacteria
T2 sequence (Q9X034 1-406): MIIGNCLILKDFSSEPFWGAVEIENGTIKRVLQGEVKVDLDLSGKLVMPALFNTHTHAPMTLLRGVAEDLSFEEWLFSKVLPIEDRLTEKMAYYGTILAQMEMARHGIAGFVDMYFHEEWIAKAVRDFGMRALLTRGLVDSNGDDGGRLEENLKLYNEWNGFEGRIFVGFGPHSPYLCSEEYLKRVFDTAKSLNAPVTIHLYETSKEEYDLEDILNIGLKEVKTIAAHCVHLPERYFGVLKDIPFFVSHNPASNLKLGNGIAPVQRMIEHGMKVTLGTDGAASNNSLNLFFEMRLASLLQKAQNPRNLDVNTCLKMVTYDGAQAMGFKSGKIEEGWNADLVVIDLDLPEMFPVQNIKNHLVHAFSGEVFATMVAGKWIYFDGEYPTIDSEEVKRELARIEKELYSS
Procedure: FIG. 9A-9D. Sinefungin is a positive control compatible with the 1-Step EZ-MTase assay. (A) MTAN-based assays catabolize the methyltransferase inhibitor sinefungin (SIN). […] (C) pH-dependence of the reaction between sinefungin and TM0936. […] (D) Inhibition of the sarcosine/dimethylglycine methyltransferase by sinefungin. […] The initial methyltransfer rates were recorded at 263 nm. Further analysis provided the inhibition constant Ki (1.8±0.4 μM).

For C[S+](CC[C@H](N)C(=O)O)C[C@H]1O[C@@H](n2cnc3c(N)ncnc32)[C@H](O)[C@@H]1O (stereo partly drawn) [SAM, S-adenosyl-L-methionine], the kcat (GsSDMT) is listed as 0.867 ± 0.067 s⁻¹ and the “reactivity as TM0936 substrate” value (deaminase TM0936) is listed as “unable to catabolize; also recorded: inability to catabolize”.
